Earlier results in patent US20050228336A1, “Electrically assisted lidocaine and epinephrine delivery device having extended shelf-stability” (priority 2004, published 2005).

settings: iontophoresis in vitro across human skin

Cumulative delivery compared with lidocaine	Structure (SMILES)
slightly greater delivery	CCCNC(C)C(=O)Nc1ccccc1C (stereo not drawn) [prilocalne]
slightly greater delivery	CCCN(CC)C(CC)C(=O)Nc1c(C)cccc1C (stereo not drawn) [etidocaine]
slightly greater delivery	CCN(CC)CCOC(=O)c1ccc(N)cc1 [procaine]
